Read-outs that look alike come from different tables or passages of the source. Marks after values point to notes of the source that are not given here.
Assays:
[1] = Chemical stability in simulated gastric fluid (SGF); assay type: physicochemical; conditions: SGF without enzymes, pH 1,4; 10 μm; 2 hours at 37° C.; substance amount remaining
Description: (§1) 1) Determination of chemical stability in simulated intestinal fluid, simulated gastric fluid and human blood plasma.
(§2) SGF concentrate without enzymes, pH=1,4 (Sigma Ireland, cat #01651) was used as simulated gastric fluid. Initial candidate solution (10 mM in DMSO) was diluted with a SGF working solution to a concentration of 10 μm (test solution). The test solution was incubated in a dry block thermostat for 2 hours at 37° C. SIF concentrate without enzymes, pH=6.5 (Sigma Ireland, cat #55331) was used as simulated intestinal fluid. Initial candidate solution (10 mM in DMSO) was diluted with a SIF working solution to a concentration of 10 μm (test solution). The test solution was incubated in a dry block thermostat for 2 hours at 37° C. HPLC with Agilent 1200 liquid chromatography system (Agilent, USA) was employed to determine peak areas of the compounds in test samples, said peak areas corresponding to the initial test time (prior to incubation) and the final test time (after incubation in a dry block thermostat for 2 hours at 37° C.). We used gradient elution (1 mL/min flow rate). Substance amount in % in a sample after thermostatting was determined.
(§3) The stability of the compounds was estimated.

[2] = Chemical stability in simulated intestinal fluid (SIF); assay type: physicochemical; conditions: SIF without enzymes, pH 6.5; 10 μm; 2 hours at 37° C.; substance amount remaining
Description: as §1, §2, §3

[3] = Chemical stability in human blood plasma; assay type: in vitro ADME; conditions: pooled human blood plasma; 10 μm; 4 hours at 37° C.; substance amount remaining
Method in brief: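 Pooled plasma from ten healthy donors was spiked to 10 μM from a 10 mM DMSO stock and held 4 h at 37 °C. After acetonitrile protein precipitation, HPLC peak areas before and after incubation gave the percentage of compound remaining.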

WT EGFR (Wild-Type EGFR) = molecular target: T1, WT EGFR (Wild-Type EGFR) (Homo sapiens, UniProt P00533); test: Inhibition of WT EGFR kinase activity (ADP-Glo); assay type: biochemical
T1 construct: purchased SignalChem
Method in brief: (§4)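 Recombinant WT or double-mutant EGFR was incubated with a solution of 0.5 mg/mL peptide substrate and 50 μM ATP for 180 minutes at 37° C. Kinase activity was detected by ADP-Glo luminescence. IC50 values came from a four-parameter logistic fit.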

[4] = molecular target: T2, DM EGFR (DoubleMutantEGFR, L828R/T790M) (Homo sapiens, UniProt P00533, L858R/T790M); test: Inhibition of DM EGFR kinase activity (ADP-Glo); assay type: biochemical; conditions: for IC50: inhibition of kinase activity, EGFR DM (L828R/T790M); for SI, IC50(WT)/IC50(DM): selectivity index, kinase EGFR WT vs EGFR DM
T2 construct: purchased SignalChem
Method in brief: as §4

[5] = system: A549 (lung adenocarcinoma, WT); test: Antiproliferative activity on A549 cells (Alamar Blue); assay type: cell-based; conditions: Homo sapiens, antiproliferative test
Method in brief: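 Cells seeded at 5*10^3/well in RPMI-1640 with 2% FBS, attached 16-18 h at 37° C, then exposed to compounds (≤1% DMSO) for 72 h. Alamar Blue added for 3-5 h; fluorescence read at 540/590 nm. IC50 from four-parameter logistic fit.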

[6] = system: HCC827 (lung adenocarcinoma, SM, exon19delE746-A750); test: Antiproliferative activity on HCC827 cells (Alamar Blue); assay type: cell-based; conditions: Homo sapiens, antiproliferative test
Description: Antiproliferative activity of EGFR inhibitors (Tables 15 and 16) was measured in cell-based bioassay on continuous epithelial cell cultures: A549 (lung adenocarcinoma, ATCC® CRM-CCL-185™—WT), HCC827 (lung adenocarcinoma, ATCC® CRL-2868™—SM (SingleMutantEGFR, exon19delE746-A750)) and H1975 (lung adenocarcinoma, ATCC® CRL-5908™—DM (DoubleMutantEGFR, L828R/T790M)) using cell viability reagent Alamar Blue (ThermoFisher, # DAL1100). Cells were cultured in 10% FBS-supplemented (Gibco, #16140071) RPMI-1640 (PanEco, S330p) for at least 1 passage after thawing, washed with PBS and passaged in 96-well culture plates (3599, Corning) with RPMI-1640 growth medium supplemented with 2% FBS in an amount of 5*10^3 cells/well for A549, 10*10^3 cells/well for HCC827 and 15*10^3 cells/well for H1975 in 100 μL, and incubated at 37° C. in an incubator (Thermo Forma, USA) under 5% of CO2 for 16-18 h for cell attachment.
The test compounds were dissolved in DMSO in the selected range of concentrations and transferred to RPMI-1640 medium (PanEco, S330p) supplemented with 2% FBS. After adding 50 μl of the prepared dilutions to the cells, the incubation mixture contained the final concentrations of the test substances and no more than 1% DMSO. The plates were Incubated at 37° C. for 72 h. After incubation, 15 μl of Alamar Blue vital dye (ThermoFisher, # DAL1100) was added to each well. The plates were shaken on an orbital shaker (Biosan, Latvia) and further incubated for 3-5 h in a CO2 incubator (Thermo Forma, USA). Number of living cells was estimated using a plate spectrophotometer Infinite M200Pro, (Tecan, Switzerland) measuring fluorescent signal at the excitation wavelength (λEx) of 540 nm and emission wavelength (λEm) of 590 nm.
IC50 was calculated using Magellan 7.2 software (Tecan, Switzerland) approximating experimental points by four-parameter logistic model with the optimization by Levenberg-Marquardt.

[7] = system: H1975 (lung adenocarcinoma, DM, L828R/T790M); test: Antiproliferative activity on H1975 cells (Alamar Blue); assay type: cell-based; conditions: for IC50: Homo sapiens, NCI-H1975, H1975 cells; for SI IC50(A549)/IC50(DM): selectivity index, A549 vs H1975 cells
Method in brief: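 H1975 cells (15*10^3/well) attached 16-18 h in RPMI-1640 with 2% FBS, then exposed to compounds (≤1% DMSO final) for 72 h at 37 °C. Viability by Alamar Blue fluorescence (Ex 540/Em 590 nm) after 3-5 h; IC50 from four-parameter logistic fit.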

[8] = General cytotoxicity on HepG2 cells; assay type: cell-based; conditions: human; general cytotoxicity, HepG2 cells, 72 hours, average of several tests
Method in brief: (§5)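 HepG2 cells seeded at 2*10^4 cells per well and compounds added in DMEM with 2% FBS for 72 h at 37 °C. Viability read with Alamar Blue and CC50 derived as for IC50. Therapeutic index taken as HepG2 CC50 over H1975 IC50.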

HepG2 cells = test: General cytotoxicity on HepG2 cells; assay type: cell-based; conditions: therapeutic index, CC50 HepG2 / IC50 H1975
Method in brief: as §5

[9] = average values obtained in several tests, Table 16, read-out: H1975 (DM) IC50
[10] = antiproliferative test, Table 15, read-out: IC50 H1975 (DM)

Row | Stability in SGF, % [1] [%] | Stability in SIF, % [2] [%] | Stability in blood plasma, % [3] [%] | IC50 (WT EGFR (Wild-Type EGFR)) [nM] | IC50 [4] [nM] | SI, IC50(WT)/IC50(DM) [4] | IC50 [5] [nM] | IC50 [6] [nM] | IC50 [7, 9] [nM] | IC50 [7, 10] [nM] | Structure (SMILES) | SI IC50(A549)/IC50(DM) [7] | CC50 at 72 h [8] [nM] | TI, CC50/IC50 (HepG2 cells)
1 | 98.0 | 99.7 | 67.5 | 202 | 5.26 | 38.41 | 35100 | 11.1 | 93.4 | 93.4 | C=CC(=O)Nc1cc(Nc2nccc(C(=O)c3cccc(OC)c3)n2)c(OC)cc1N(C)CCN(C)C [EGFR_3365_32, N-(2-((2-(dimethylamino)ethyl)(methyl)amino)-4-methoxy-5-((4-(3-methoxybenzoyl)pyrimidin-2-yl)amino)phenyl)acrylamide] | 376.12 | 24800 | 265
2 | 99.5 | 96.8 | 60.5 | 75.8 | 6.79 | 11.16 | > 10000 | 5.9 | 5.6 | 5.6 | C=CC(=O)Nc1cc(Nc2nccc(C(=O)c3ccccc3OC)n2)c(OC)cc1N(C)CCN(C)C [EGFR_3365_33, N-(2-((2-(dimethylamino)ethyl)(methyl)amino)-4-methoxy-5-((4-(2-methoxybenzoyl)pyrimidin-2-yl)amino)phenyl)acrylamide] | >1786** | 57600 | 10285
3 | 99.0 | 100.0 | 82.7 | 514 | 6.95 | 74.07 | 16200 | 111 | 164 | 164 | C=CC(=O)Nc1cc(Nc2nccc(C(=O)c3cccc([N+](=O)[O-])c3)n2)c(OC)cc1N(C)CCN(C)C [EGFR_3365_34] | 98.26 | 10300 | 62

Reference: patent US20200339544A1 (JOINT STOCK COMPANY "BIOCAD", priority 2017, published 2020)
